Test results reported in the supplement of paper PMC10307832.

Columns and labels:
Experiment in all cases: relative viability (nuclei count vs DMSO), 5 days (fraction); higher = more cells survive
[1] = system: SK-LU-1
Method in brief: (§1)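 Relative viability was taken as the ratio of nuclei in treated wells to nuclei in vehicle wells. Lung cancer cell lines in 1536-well plates received compounds by pin tool one day after seeding, either one drug alone or a fixed anchor-drug dose plus five library-drug doses (not always all listed) in √10 steps. Nuclei were counted on 4× images after 5 days of treatment, and values are medians of duplicate plates.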

[2] = system: NCI-H2023
Method in brief: as §1

[3] = system: CAL-12T
Method in brief: as §1

[4] = system: NCI-H1650
Method in brief: as §1

[5] = system: NCI-H1355
Method in brief: as §1

[6] = system: NCI-H1975
Method in brief: as §1

[7] = system: NCI-H2342
Method in brief: as §1

[8] = system: HCC-366
Method in brief: as §1

[9] = system: NCI-H460
Method in brief: as §1

[10] = system: NCI-H1734
Method in brief: as §1

[11] = system: NCI-H358
Method in brief: as §1

Q: For CCN(CC)CCCCNc1ncc2cc(-c3cc(OC)cc(OC)c3)c(NC(=O)NC(C)(C)C)nc2n1 + COc1cc2c(Oc3ccc(NC(=O)C4(C(=O)Nc5ccc(F)cc5)CC4)cc3F)ccnc2cc1OCCCN1CCOCC1 [Foretinib] (partner 0.25 µM), which relative viability ([1]; first compound 0.01 µM) is on record?
A: Its relative viability is 0.942.

Q: And the relative viability ([1]; first compound 0.03162 µM)?
A: The relative viability was 0.78.

Q: And the relative viability ([1]; first compound 0.1 µM)?
A: Its relative viability is 1.12.

Q: And the relative viability ([1]; first compound 0.3162 µM)?
A: Its relative viability is 1.07.

Q: And the relative viability ([1]; first compound 1 µM)?
A: The relative viability was 0.662.

Q: And the relative viability ([2]; first compound 0.01 µM)?
A: The relative viability was 0.954.

Q: What about the relative viability ([2]; first compound 0.03162 µM) of the same compound?
A: Its relative viability is 0.961.

Q: And the relative viability ([2]; first compound 0.1 µM)?
A: The relative viability was 0.864.

Q: And the relative viability ([2]; first compound 0.3162 µM)?
A: Its relative viability is 0.853.

Q: And the relative viability ([2]; first compound 1 µM)?
A: Its relative viability is 0.758.

Q: And the relative viability ([3]; first compound 0.01 µM)?
A: Its relative viability is 1.13.

Q: What about the relative viability ([3]; first compound 0.03162 µM) of the same compound?
A: The relative viability was 1.2.

Q: And the relative viability ([3]; first compound 0.1 µM)?
A: Its relative viability is 1.35.

Q: What about the relative viability ([3]; first compound 0.3162 µM) of the same compound?
A: The relative viability was 1.23.

Q: What about the relative viability ([3]; first compound 1 µM) of the same compound?
A: Its relative viability is 1.19.

Q: What about the relative viability ([4]; first compound 0.01 µM) of the same compound?
A: The relative viability was 1.26.

Q: And the relative viability ([4]; first compound 0.03162 µM)?
A: Its relative viability is 1.11.

Q: And the relative viability ([4]; first compound 0.1 µM)?
A: The relative viability was 1.1.

Q: And the relative viability ([4]; first compound 0.3162 µM)?
A: The relative viability was 1.2.

Q: And the relative viability ([4]; first compound 1 µM)?
A: Its relative viability is 1.12.

Q: And the relative viability ([5]; first compound 0.01 µM)?
A: Its relative viability is 1.01.

Q: And the relative viability ([5]; first compound 0.03162 µM)?
A: Its relative viability is 0.967.

Q: And the relative viability ([5]; first compound 0.1 µM)?
A: The relative viability was 1.01.

Q: And the relative viability ([5]; first compound 0.3162 µM)?
A: The relative viability was 1.1.

Q: And the relative viability ([5]; first compound 1 µM)?
A: The relative viability was 0.991.

Q: And the relative viability ([6]; first compound 0.01 µM)?
A: The relative viability was 0.931.

Q: And the relative viability ([6]; first compound 0.03162 µM)?
A: The relative viability was 0.956.

Q: And the relative viability ([6]; first compound 0.1 µM)?
A: Its relative viability is 1.29.

Q: And the relative viability ([6]; first compound 0.3162 µM)?
A: Its relative viability is 1.04.

Q: And the relative viability ([6]; first compound 1 µM)?
A: The relative viability was 0.867.

Q: What about the relative viability ([7]; first compound 0.01 µM) of the same compound?
A: Its relative viability is 1.19.

Q: What about the relative viability ([7]; first compound 0.03162 µM) of the same compound?
A: The relative viability was 1.23.

Q: And the relative viability ([7]; first compound 0.1 µM)?
A: Its relative viability is 1.19.

Q: What about the relative viability ([7]; first compound 0.3162 µM) of the same compound?
A: The relative viability was 1.03.

Q: And the relative viability ([7]; first compound 1 µM)?
A: The relative viability was 1.

Q: What about the relative viability ([8]; first compound 0.01 µM) of the same compound?
A: Its relative viability is 0.951.

Q: What about the relative viability ([8]; first compound 0.03162 µM) of the same compound?
A: The relative viability was 0.941.

Q: What about the relative viability ([8]; first compound 0.1 µM) of the same compound?
A: Its relative viability is 1.05.

Q: What about the relative viability ([8]; first compound 0.3162 µM) of the same compound?
A: The relative viability was 0.981.

Q: What about the relative viability ([8]; first compound 1 µM) of the same compound?
A: Its relative viability is 0.999.

Q: What about the relative viability ([9]; first compound 0.01 µM) of the same compound?
A: The relative viability was 0.972.

Q: And the relative viability ([9]; first compound 0.03162 µM)?
A: Its relative viability is 1.13.

Q: And the relative viability ([9]; first compound 0.1 µM)?
A: The relative viability was 1.03.

Q: And the relative viability ([9]; first compound 0.3162 µM)?
A: The relative viability was 1.04.

Q: What about the relative viability ([9]; first compound 1 µM) of the same compound?
A: The relative viability was 1.18.

Q: What about the relative viability ([10]; first compound 0.01 µM) of the same compound?
A: Its relative viability is 0.863.

Q: What about the relative viability ([10]; first compound 0.03162 µM) of the same compound?
A: The relative viability was 0.828.

Q: And the relative viability ([10]; first compound 0.1 µM)?
A: The relative viability was 0.83.

Q: And the relative viability ([10]; first compound 0.3162 µM)?
A: Its relative viability is 0.943.

Q: And the relative viability ([10]; first compound 1 µM)?
A: The relative viability was 0.694.

Q: And the relative viability ([11]; first compound 0.01 µM)?
A: Its relative viability is 0.71.

Q: What about the relative viability ([11]; first compound 0.03162 µM) of the same compound?
A: Its relative viability is 0.638.

Q: And the relative viability ([11]; first compound 0.1 µM)?
A: The relative viability was 0.679.

Q: What about the relative viability ([11]; first compound 0.3162 µM) of the same compound?
A: The relative viability was 0.815.

Q: And the relative viability ([11]; first compound 1 µM)?
A: The relative viability was 0.625.
